Assay results published in patent EP0745595A1, “3-(3-Aryloxyphenyl)-1-(substituted methyl)-s-triazine-2,4,6-oxo or thiotrione herbicidal agents” (American Cyanamid Company, priority 1995, dated 1996).

Key:
Assay type in all cases: in vivo
[1] = system: GLYCINE MAX(L) MERR. CV. WILLIAMS; assay: Postemergence herbicidal evaluation, GLXMAW (Soybean, Williams); set-up: key to GLXMAW rating / Herbicidal effect rating, GLXMAW / GLXMAW: 0-9 visual rating scale vs untreated control
Method in brief: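 Soybean seedlings (Williams) were raised in jiffy flats for roughly two weeks, then sprayed postemergence through a nozzle at 40 psi with test compound dispersed in 50/50 acetone/water containing 0.5% TWEEN®20. Treated plants were kept on greenhouse benches under normal care and visually rated on a 0-9 scale four to five weeks later.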

[2] = system: ECHINOCHLOA ORYZOIDES (ARD.)FRITSCH; assay: Preemergence weed control under flooded paddy conditions, ECHORC (Watergrass (Calif.)); settings: pre-weed
Method in brief: (§1)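 Flooded paddy preemergence test: seeds/propagating organs in top 0.5 cm silt loam, water held 1.5-3 cm above soil. Dosing by pipette into flood water, aqueous/acetone 50/50 v/v, ~0.5, 0.25, 0.125, 0.063 kg/ha a.i. Greenhouse; read at 3-4 wk, 0-9 visual scale.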

[3] = system: ORYZA SATIVA, L. TEBONNET; assay: Postemergence herbicidal evaluation, ORYSAT (Rice, Tebonnet); set-up: key: 0-9 visual rating scale vs untreated control
Method: In the tests, seedling plants are grown in jiffy flats for about two weeks. The test compounds are dispersed in 50/50 acetone/water mixtures containing 0.5% TWEEN®20, a polyoxyethylene sorbitan monolaurate surfactant of Atlas Chemical Industries, in sufficient quantities to provide the equivalent of about 0.125 kg to 0.500 kg per hectare of active compound when applied to the plants through a spray nozzle operating at 40 psi for a predetermined time. After spraying, the plants are placed on greenhouse benches and are cared for in the usual manner, commensurate with conventional greenhouse practices. From four to five weeks after treatment, the seedling plants are examined and rated according to the rating system set forth below. Where more than one test is involved for a given compound, the data are averaged.
Plant species employed in these evaluations are reported by header abbreviation, common name and scientific name.
Results of herbicide evaluation are expressed on a rating scale (0-9). The scale is based upon a visual observation of plant stand, vigor, malformation, size, chlorosis and overall plant appearance as compared with a control.

[4] = system: CASSIA OBTUSIFOLIA, L.; assay: Postemergence herbicidal evaluation, CASOB (Sicklepod); set-up: key to CASOB rating / Herbicidal effect rating, CASOB / CASOB: 0-9 visual rating scale vs untreated control;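 note: higher means more injury with 8 approaching complete kill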
Method in brief: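 Visual 0–9 scores reflect stand, vigor, malformation, size, chlorosis and overall appearance relative to control, taken 4–5 weeks after spraying two-week-old seedlings with about 0.125–0.500 kg/ha compound in acetone/water/TWEEN 20.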

[5] = system: ZEA MAYS L.; assay: Preemergence herbicidal evaluation, ZEAMX (Corn, Field)
Method in brief: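 Corn (Zea mays) seeds were mixed with potting soil and planted on about one inch of soil in pint cups, then treated preemergence. Cups were kept on greenhouse benches, watered and maintained conventionally, and after four to five weeks were visually rated on a 0-9 scale versus an untreated control.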

[6] = system: SAGITTARIA PYGMAEA, L.; assay: Preemergence weed control under flooded paddy conditions, SAGPY (Arrowhead (Pygmaea)); settings: pre-weed
Method in brief: as §1

[7] = system: CYPERUS SEROTINUS, ROTTB.; assay: Preemergence weed control under flooded paddy conditions, CYPSE (Flatsedge); settings: pre-weed
Method in brief: as §1

[8] = system: […], PRESL.; assay: Preemergence weed control under flooded paddy conditions, MOOVA (Monochoria); settings: pre-weed
Method in brief: as §1

[9] = system: CYPERUS IRIA; assay: Preemergence weed control under flooded paddy conditions, CYPIR (Rice Flatsedge); settings: pre-weed
Method in brief: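 Seeds or propagating organs of rice flatsedge were planted in the top 0.5 cm of silt loam soil in 32 oz. plastic containers, 10.5 cm across and without drainage holes. Water was kept 1.5 to 3 cm above the soil throughout. Treated containers were kept on greenhouse benches, and herbicidal effect was visually rated on a 0-9 scale against a control.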

[10] = system: CASSIA OBTUSIFOLIA, L.; assay: Preemergence herbicidal evaluation, CASOB (Sicklepod)
Method in brief: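 Seeds of various monocot and dicot plants, including sicklepod, were each mixed with potting soil and sown on roughly one inch of soil in separate pint cups for preemergence testing. Treated cups were kept on greenhouse benches, watered and maintained conventionally. Four to five weeks after treatment, each cup was visually rated on a 0-9 scale against a control.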

Cn1c(=O)[nH]c(=O)n(-c2cc(Oc3c(F)cc(C(F)(F)F)cc3Cl)ccc2[N+](=O)[O-])c1=O [D, reference compound]
GLXMAW ([1]; Rate 0.008 kg/ha): 2.5 | GLXMAW ([1]; Rate 0.016 kg/ha): 4.2 | GLXMAW ([1]; Rate 0.031 kg/ha): 4.5 | GLXMAW ([1]; Rate 0.063 kg/ha): 4.7 | GLXMAW ([1]; Rate 0.125 kg/ha): 5.5 | ECHORC ([2]; Rate 0.031 kg/ha): 9.0 | ECHORC ([2]; Rate 0.063 kg/ha): 9.0 | ECHORC ([2]; Rate 0.125 kg/ha): 9.0 | ECHORC ([2]; Rate 0.250 kg/ha): 9.0 | ORYSAT ([3]; Rate 0.016 kg/ha): 3.8 | ORYSAT ([3]; Rate 0.031 kg/ha): 4.3 | ORYSAT ([3]; Rate 0.063 kg/ha): 4.8 | ORYSAT ([3]; Rate 0.125 kg/ha): 5.3 | CASOB ([4]; Rate 0.008 kg/ha): 1.0 | CASOB ([4]; Rate 0.016 kg/ha): 4.3 | CASOB ([4]; Rate 0.031 kg/ha): 5.0 | CASOB ([4]; Rate 0.063 kg/ha): 6.0 | CASOB ([4]; Rate 0.125 kg/ha): 9.0 | ZEAMX ([5]; Rate 0.031 kg/ha): 0.0 | ZEAMX ([5]; Rate 0.063 kg/ha): 0.0 | ZEAMX ([5]; Rate 0.125 kg/ha): 0.0 | ZEAMX ([5]; Rate 0.250 kg/ha): 0.0

Cn1c(=O)[nH]c(=O)n(-c2cccc(Oc3ccc(C(F)(F)F)cc3Cl)c2)c1=O [E, reference compound]
SAGPY ([6]; Rate 0.250 kg/ha): 0.0 | SAGPY ([6]; Rate 0.500 kg/ha): 0.0 | SAGPY ([6]; Rate 1.000 kg/ha): 0.0 | GLXMAW ([1]; Rate 0.063 kg/ha): 2.0 | GLXMAW ([1]; Rate 0.125 kg/ha): 2.5 | GLXMAW ([1]; Rate 0.250 kg/ha): 3.0 | GLXMAW ([1]; Rate 0.500 kg/ha): 3.5 | ECHORC ([2]; Rate 0.250 kg/ha): 0.0 | ECHORC ([2]; Rate 0.500 kg/ha): 0.0 | ECHORC ([2]; Rate 1.000 kg/ha): 0.0 | CYPSE ([7]; Rate 0.250 kg/ha): 0.0 | CYPSE ([7]; Rate 0.500 kg/ha): 0.0 | CYPSE ([7]; Rate 1.000 kg/ha): 0.0 | ORYSAT ([3]; Rate 0.063 kg/ha): 1.5 | ORYSAT ([3]; Rate 0.125 kg/ha): 2.0 | ORYSAT ([3]; Rate 0.250 kg/ha): 2.0 | ORYSAT ([3]; Rate 0.500 kg/ha): 3.0 | MOOVA ([8]; Rate 0.250 kg/ha): 0.0 | MOOVA ([8]; Rate 0.500 kg/ha): 0.0 | MOOVA ([8]; Rate 1.000 kg/ha): 0.0 | CASOB ([4]; Rate 0.063 kg/ha): 2.0 | CASOB ([4]; Rate 0.125 kg/ha): 3.0 | CASOB ([4]; Rate 0.250 kg/ha): 5.0 | CASOB ([4]; Rate 0.500 kg/ha): 2.0 | CYPIR ([9]; Rate 0.250 kg/ha): 0.0 | CYPIR ([9]; Rate 0.500 kg/ha): 0.0 | CYPIR ([9]; Rate 1.000 kg/ha): 0.0 | CASOB ([10]; Rate 0.125 kg/ha): 0.0 | CASOB ([10]; Rate 0.250 kg/ha): 0.0 | CASOB ([10]; Rate 0.500 kg/ha): 0.0 | CASOB ([10]; Rate 1.000 kg/ha): 0.0

Cn1c(=O)[nH]c(=O)n(-c2cc(Oc3ccc(C(F)(F)F)cc3Cl)ccc2Cl)c1=O [F, reference compound]
SAGPY ([6]; Rate 0.031 kg/ha): 0.0 | SAGPY ([6]; Rate 0.063 kg/ha): 0.0 | SAGPY ([6]; Rate 0.125 kg/ha): 0.0 | SAGPY ([6]; Rate 0.250 kg/ha): 0.0 | GLXMAW ([1]; Rate 0.016 kg/ha): 3.5 | GLXMAW ([1]; Rate 0.032 kg/ha): 3.5 | GLXMAW ([1]; Rate 0.063 kg/ha): 4.5 | GLXMAW ([1]; Rate 0.125 kg/ha): 4.0 | GLXMAW ([1]; Rate 0.250 kg/ha): 5.5 | GLXMAW ([1]; Rate 0.500 kg/ha): 5.5 | ECHORC ([2]; Rate 0.031 kg/ha): 0.0 | ECHORC ([2]; Rate 0.063 kg/ha): 0.0 | ECHORC ([2]; Rate 0.125 kg/ha): 0.0 | ECHORC ([2]; Rate 0.250 kg/ha): 0.0 | CYPSE ([7]; Rate 0.031 kg/ha): 0.0 | CYPSE ([7]; Rate 0.063 kg/ha): 0.0 | CYPSE ([7]; Rate 0.125 kg/ha): 0.0 | CYPSE ([7]; Rate 0.250 kg/ha): 0.0 | ORYSAT ([3]; Rate 0.016 kg/ha): 1.5 | ORYSAT ([3]; Rate 0.032 kg/ha): 1.5 | ORYSAT ([3]; Rate 0.063 kg/ha): 2.5 | ORYSAT ([3]; Rate 0.125 kg/ha): 3.0 | ORYSAT ([3]; Rate 0.250 kg/ha): 3.0 | ORYSAT ([3]; Rate 0.500 kg/ha): 3.0 | CASOB ([4]; Rate 0.016 kg/ha): 2.0 | CASOB ([4]; Rate 0.032 kg/ha): 4.0 | CASOB ([4]; Rate 0.063 kg/ha): 5.0 | CASOB ([4]; Rate 0.125 kg/ha): 8.0 | CASOB ([4]; Rate 0.250 kg/ha): 9.0 | CASOB ([4]; Rate 0.500 kg/ha): 6.5
